Results reported in patent US10463664B2, “Inhibitors of HSV nucleotidyl transferases and uses therefor” (Saint Louis University, priority 2013, dated 2019).

Legend:
[1] = target: T1, human RNaseH1 (Homo sapiens, UniProt O60930); assay: Biochemical inhibition of human RNaseH1 (oligonucleotide-directed RNA cleavage assay); settings: compounds at 60, 20 or 10 μM
T1 construct: hexahistidine; made in house; host or cells: E. coli
T1 sequence (O60930 1-286): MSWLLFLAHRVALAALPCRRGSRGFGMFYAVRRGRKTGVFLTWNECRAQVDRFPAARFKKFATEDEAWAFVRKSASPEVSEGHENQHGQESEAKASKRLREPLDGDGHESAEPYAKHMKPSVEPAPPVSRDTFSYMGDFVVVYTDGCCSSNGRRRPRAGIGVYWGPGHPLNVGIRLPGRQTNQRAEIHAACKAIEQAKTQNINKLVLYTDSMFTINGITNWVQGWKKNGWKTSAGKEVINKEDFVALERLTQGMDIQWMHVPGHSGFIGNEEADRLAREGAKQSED
Protocol: (§1) Biochemical inhibition of HBV RNaseH and human RNaseH1 activity. […] RNaseH activity was measured using an oligonucleotide-directed RNA cleavage assay in which a DNA oligonucleotide is annealed to an internally ^32P-labeled RNA, the RNA:DNA heteroduplex is incubated with the enzyme to permit cleavage, and then the RNA cleavage products are resolved by electrophoresis and detected by autoradiography. The compounds were included in the reaction mixes at 60, 20, or 10 μM and the amount of the RNA cleavage products in the compound-containing reactions was compared to reactions in which an equivalent concentration of DMSO was added as a vehicle control. The data were quantified using ImageJ.

[2] = system: Vero cells; assay: Qualitative (visual) cytotoxicity assessment in primary screening; assay type: cell-based; set-up: key to Vero cell toxicity Qualitative: T: visual evidence of toxicity at 50 μM; settings: visual, 50 μM
Protocol: Compound Cytotoxicity. Compound cytotoxicity was measured both subjectively and quantitatively. Subjective assessments were done by visually inspecting the infected cells at the end of the 24 hours infection window through a phase-contrast microscope.

[3] = target: T2, HBV RNaseH (Hepatitis B virus genotype A2 subtype adw2, UniProt P03159); assay: Biochemical inhibition of HBV RNaseH (oligonucleotide-directed RNA cleavage assay); settings: compounds at 60, 20 or 10 μM
T2 construct: One of the inventors recently produced active recombinant HBV RNase H; hexahistidine; made in house; host or cells: E. coli
Protocol: as §1

[4] = system: HSV-2; assay: Anti-HSV-2 replication assay in Vero cells, titer by plaque assay; assay type: cell-based, herpes simplex virus 2; settings: for Anti-HSV-2 Log10 suppression 5 μM / Anti-HSV-2 Log10 suppression 50 μM: moi 0.1, 24 h, relative to DMSO; for Inhibition of HSV-2 replication (in words): primary screening
Protocol: (§2) Anti-HSV-1 and -HSV-2 Replication Assay. Compounds to be screened were diluted in PBS supplemented to contain 2% newborn calf serum and 1% glutamine, and added in 100 μL, volume to confluent cell monolayers in 24-well cluster plates. Immediately thereafter HSV-1 and HSV-2, diluted in the supplemented PBS medium, were added to the wells in 50 μl volume such that the final concentration of compound was 50 μM and 5 μM and the multiplicity of infection was 0.1. The plates were incubated at 37° C. for 1 hour and then virus-containing inoculum was removed and the wells were washed once in PBS. Compounds, diluted to 50 μM and 5 μM in DMEM supplemented to contain 2% newborn calf serum and 1% each penicillin/streptomycin, were added at 0.5 mL/well. Plates were incubated at 37° C. an additional 23 hr, and then the plates were visually inspected through a phase contrast microscope for cytopathic effect, and for toxic effect. […] The entire contents of each well were collected by scraping. Samples were frozen at −80° C., and then subsequently thawed, sonicated, and infectious virus titer was determined by standard plaque assay on Vero cell monolayers. Because the compounds were dissolved at 10 mM in 100% DMSO, equivalent dilutions of DMSO were added to additional wells as a control for effects of the diluent. Each experiment was repeated once. EC50 values were determined as above except that serial dilutions of the compound to be tested were prepared starting at 50 μM. The inhibitory values were calculated by non-linear curve-fitting in GraphPad Prism.
(§3) Monolayers were microscopically inspected 24 hours post-infection and wells in which more cells were visually healthier than the DMSO-treated controls were collected. Viral titers in the culture lysates were then determined by standard plaque assay on Vero cells. Inhibition of viral replication was categorized as <1 log10 relative to the DMSO-treated control, 1 to 3 log10 suppression, or ≥3 log10 suppression. […] Additionally, four polyoxygenated heterocycle compounds were tested (#128, 138, 139, 140).

[5] = system: HSV-1; assay: Anti-HSV-1 replication assay in Vero cells, titer by plaque assay; assay type: cell-based, herpes simplex virus 1; settings: for Anti-HSV-1 Log10 suppression 5 μM / Anti-HSV-1 Log10 suppression 50 μM: moi 0.1, 24 h, relative to DMSO; for Inhibition of HSV-1 replication (in words): primary screening
Protocol: as §2, §3

[6] = system: primary human foreskin fibroblasts; assay: in vitro
Protocol: (§4) Toxicity Assays. Qualitative assessments of cytotoxicity were done visually by inspecting the cells in the primary screening assays. For the quantitative assays, cells were plated in 96-well plates at 1.0×10^4 per well. The next day the compounds were added at 0.78 to 100 μM in a final concentration of 1% (v/v) DMSO, and the cells were incubated for 24 hours under conditions identical to those employed for the viral replication inhibition assays. Mitochondrial toxicity was measured by incubating the cells with 0.25 mg/mL thiazolyl blue tetrazolium bromide (MTT, SigmaAldrich Chemical Co.), the cultures were incubated for 60 min, metabolites were solubilized in acidic isopropanol, and absorbance was read at 570 nm. Cellular lysis was measured by detecting release of intracellular proteases with the CytoTox-Glo assay (Promega) according to the manufacturer's instructions. Percent viability was determined for each compound concentration from the maximal absorbance or luminosity data, and then CC50 values were calculated by non-linear curve fitting using GraphPad Prism.
(§5) Inhibition of viral replication was next assessed in human foreskin fibroblasts (HFF) to determine whether NTS inhibitors could block HSV-1 and HSV-2 replication in a physiologically relevant, primary human cell type. […] Viral yields 24 hours post-infection were measured by plaque assay.

[7] = system: HSV-1; assay: HSV-1 replication inhibition in primary human foreskin fibroblasts; assay type: cell-based, herpes simplex virus 1; set-up: key to Replication inhibition HSV-1 50 μM (not quantified): NQ: Not quantified due to visible toxicity; settings: HFF cells
Protocol: as §2, §5

[8] = system: HSV-2; assay: HSV-2 replication inhibition in primary human foreskin fibroblasts; assay type: cell-based, herpes simplex virus 2; set-up: key to Replication inhibition HSV-2 50 μM (not quantified): NQ: Not quantified due to visible toxicity; settings: HFF cells
Protocol: as §2, §5

[9] = system: Vero cells; assay: MTT mitochondrial toxicity assay in Vero cells; assay type: cell-based; settings: 24 h; read-out: Vero cell toxicity MTT CC50
[10] = system: Vero cells; assay: CytoTox-Glo cellular lysis assay in Vero cells; assay type: cell-based; settings: 24 h; read-out: Vero cell toxicity CTG CC50
Protocol: Quantitative toxicity measurements were conducted for all compounds that suppressed HSV replication by approximately 2 login or more at 5 μM plus a number of compounds with lesser inhibitory activity for comparison. Toxicity was assessed by measuring release of intracellular proteases into the culture medium due to cellular lysis. […] Consistent with the subjective assessments of toxicity, all compounds selected for quantitative toxicity assessment had CC50 values ≥50 μM by both the MTT and cellular lysis assays (Table 1).

[11] = in vitro; settings: human
Protocol: as §4, §5

[12] = relative to DMSO-treated control
[13] = 50 μM, relative to DMSO-treated control

T2 sequence (P03159 693-845): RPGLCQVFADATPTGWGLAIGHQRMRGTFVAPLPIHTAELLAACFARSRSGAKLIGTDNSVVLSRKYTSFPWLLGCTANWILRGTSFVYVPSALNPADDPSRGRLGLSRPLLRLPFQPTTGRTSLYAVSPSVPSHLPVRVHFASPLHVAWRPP

| Anti-Human RNaseH1 [1] | Anti-HBV RNaseH [3] | SMILES | Vero cell toxicity Qualitative [2] | Anti-HSV-2 Log10 suppression 50 μM (screening symbol) ([4]; visual inspection) | Replication inhibition HSV-1 5 μM [7, 12] | Replication inhibition HSV-2 5 μM [8, 12] | CC50 [9] | Anti-HSV-2 Log10 suppression 5 μM ([4]; 5 μM) | Anti-HSV-2 Log10 suppression 50 μM [4] | CC50 [10] | Anti-HSV-1 Log10 suppression 5 μM ([5]; 5 μM) | Anti-HSV-1 Log10 suppression 50 μM ([5]; 50 μM) | other results |
| --- | --- | --- | --- | --- | --- | --- | --- | --- | --- | --- | --- | --- | --- |
| − (no inhibition at 60 μM) | − (no inhibition at 60 μM) | O=Nc1ccc(O)c(=O)cc1 [Compound 50, 5-nitrosotropolone] | T | + | 2.92 log10 | 2.88 log10 |  |  |  |  |  |  | CC50 [6]: 40.4 µM; Toxicity in HFF cells (in words) [6]: some toxicity; Replication inhibition HSV-1 50 μM (not quantified) ([7]; 50 μM): NQ^4; Replication inhibition HSV-2 50 μM (not quantified) ([8]; 50 μM): NQ |
| − (no inhibition at 60 μM) | − (no inhibition at 60 μM) | O=c1cccccc1O [Compound 53, Tropolone] |  |  | −0.03 log10 | 0.29 log10 |  | 0.45 log10 | 1.45 log10 |  | 0.25 log10 | 1.90 log10 | CC50 at 24 h [11]: > 100 µM; Replication inhibition HSV-1 50 μM [7, 13]: 2.13 log10; Inhibition of HSV-2 replication (in words) [4]: negligible inhibitors; Replication inhibition HSV-2 50 μM [8, 13]: 1.22 log10; Inhibition of HSV-1 replication (in words) [5]: negligible inhibitors |
| ++ (inhibition at 20 μM) | − (no inhibition at 60 μM) | Cc1ccc(S(=O)(=O)Oc2cccccc2=O)cc1 [Compound 61] | T | − | −0.17 log10 | −0.05 log10 |  | 0.23 log10 |  |  | 0.15 log10 |  | CC50 [6]: 27.8 µM; Toxicity in HFF cells (in words) [6]: some toxicity; Replication inhibition HSV-1 50 μM (not quantified) ([7]; 50 μM): NQ; Inhibition of HSV-2 replication (in words) [4]: negligible inhibitors; Replication inhibition HSV-2 50 μM (not quantified) ([8]; 50 μM): NQ; Inhibition of HSV-1 replication (in words) [5]: negligible inhibitors |
| +++ (inhibition at 10 μM) | +++ (inhibition at 10 μM) | O=c1cc2oc3cc(O)c(O)cc3c(-c3ccccc3)c-2cc1O [Compound 31] |  |  |  |  | > 100 µM | 0.22 log10 | 3.56 log10 | > 100 µM | 0.21 log10 | 3.01 log10 |  |

Further lines, the compound ahead of its results:

| SMILES | Anti-Human RNaseH1 [1] | Anti-HBV RNaseH [3] | Vero cell toxicity Qualitative [2] | Anti-HSV-2 Log10 suppression 50 μM (screening symbol) ([4]; visual inspection) | Replication inhibition HSV-1 5 μM [7, 12] | Replication inhibition HSV-2 5 μM [8, 12] | CC50 [9] | Anti-HSV-2 Log10 suppression 5 μM ([4]; 5 μM) | Anti-HSV-2 Log10 suppression 50 μM [4] | CC50 [10] | Anti-HSV-1 Log10 suppression 5 μM ([5]; 5 μM) | Anti-HSV-1 Log10 suppression 50 μM ([5]; 50 μM) | other results |
| --- | --- | --- | --- | --- | --- | --- | --- | --- | --- | --- | --- | --- | --- |
| COc1cc2c(cc1Cc1cccc(Cl)c1F)c(=O)c(C(=O)O)cn2[C@H](CO)C(C)C [Compound 10, Elvitegravir, reference compound] | − (no inhibition at 60 μM) | − (no inhibition at 60 μM) | T | − |  |  |  |  |  |  |  |  | Anti-HSV-2 Log10 suppression 5 μM (screening symbol) ([4]; 5 μM, visual inspection): −; Anti-HSV-1 Log10 suppression 5 μM (screening symbol) ([5]; 5 μM, visual inspection): −; Anti-HSV-1 Log10 suppression 50 μM (screening symbol) ([5]; 50 μM, visual inspection): − |
| O=C1Cc2ccccc2C(=O)N1O [Compound 1] |  | +++ (inhibition at 10 μM) | T? |  |  |  | > 100 µM | −0.11 log10 | 3.12 log10 | > 100 µM | 0.28 log10 | 2.66 log10 |  |
| C[C@H](Cc1ccc(O)c(O)c1)[C@@H](C)Cc1ccc(O)c(O)c1 [Compound 2] | − (no inhibition at 60 μM) | − (no inhibition at 60 μM) |  |  |  |  | > 100 µM | −0.15 log10 | 4.38 log10 | > 100 µM | −0.19 log10 | 3.21 log10 |  |
